# Reference: patent publication US9326978B2, “A3 adenosine receptor allosteric modulators” (The United States of America, Represented by the Secretary, …, priority 2006, dated 2016)
# Experiments:
# [1] = target: hA2BAR (Homo sapiens (Human), UniProt P29275); assay: Effect on NECA-induced cyclic AMP accumulation at A2B receptor; further: NECA (150 nM)-induced cyclic AMP accumulation; format: cell-based; conditions: read-out: hA2BAR % inhib. at 10 μM
# [2] = target: human A3AR (Homo sapiens (Human), UniProt P0DMS8); assay: Competitive binding assay to the human A3AR ([125I]I-AB-MECA); conditions: for inhibition at 10 µM: 1 h, read-out: hA3AR % displ. at 10 μM; for inhibition at 10 µM / Ki: [125I]I-AB-MECA (0.5 nM), CHO cells, Table 2; for Ki: read-out: Ki(hA3AR); for affinity to orthosteric versus allosteric binding sites (selective affinity): orthosteric sites of A1, A2A, A2B, A3 receptors vs allosteric site of A3 adenosine receptor
# Sequence of human A3AR (P0DMS8 whole entry): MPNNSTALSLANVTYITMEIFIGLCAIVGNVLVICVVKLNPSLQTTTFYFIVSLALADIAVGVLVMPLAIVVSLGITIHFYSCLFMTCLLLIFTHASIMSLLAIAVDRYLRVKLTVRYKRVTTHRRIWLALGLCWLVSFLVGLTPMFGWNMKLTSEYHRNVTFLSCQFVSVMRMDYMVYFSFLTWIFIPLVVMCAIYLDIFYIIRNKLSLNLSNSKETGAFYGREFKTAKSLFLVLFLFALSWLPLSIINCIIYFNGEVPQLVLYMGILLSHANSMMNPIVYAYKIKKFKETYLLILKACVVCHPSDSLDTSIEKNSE
# Description: (§1) CHO (Chinese hamster ovary) cells expressing the recombinant human ARs (HEK-293 cells were used for the human A2AAR) were cultured in DMEM and F12 (1:1) supplemented with 10% fetal bovine serum, 100 units/ml penicillin, […] streptomycin and 2 μmol/ml glutamine. Cells were harvested by trypsinization. After homogenization and suspension, cells were centrifuged at 500 g for 10 min, and the pellet was re-suspended in 50 mM Tris.HCl buffer (pH 7.4) containing 10 mM MgCl2. The suspension was homogenized with an electric homogenizer for 10 sec, and was then re-centrifuged at 20,000 g for 20 min at 4° C. The resultant pellets were resuspended in buffer in the presence of 3 Units/mL adenosine deaminase, and the suspension was stored at −80° C. until the binding experiments. The protein concentration was measured using the Bradford assay.
# Each tube in the competitive binding assay contained 100 μl membrane suspension (20 μg protein), 50 μl [^125I]-AB-MECA (0.5 nM), and 50 μl of increasing concentrations of the test ligands in Tris.HCl buffer (50 mM, pH 8.0) containing 10 mM MgCl2, 1 mM EDTA. Nonspecific binding was determined using 10 μM of 5′-N-ethylcarboxamidoadenosine in the buffer. The mixtures were incubated at 25° C. for 60 min. Binding reactions were terminated by filtration through Whatman GF/B filters under reduced pressure using a MT-24 cell harvester (Brandell, Gaithersburgh, Md., USA). Filters were washed three times with 9 mL ice-cold buffer. Radioactivity was determined in a Beckman 5500B γ-counter.
# [3] = target: human A1AR (Homo sapiens (Human), UniProt P30542); assay: Binding assay to the human A1AR ([3H]R-PIA); conditions: [3H]R-PIA (2.0 nM), CHO cells, Table 2; for inhibition at 10 µM: 1 h, read-out: hA1AR % displ. at 10 μM; for Ki: read-out: Ki(hA1AR)
# Sequence of human A1AR (P30542 whole entry): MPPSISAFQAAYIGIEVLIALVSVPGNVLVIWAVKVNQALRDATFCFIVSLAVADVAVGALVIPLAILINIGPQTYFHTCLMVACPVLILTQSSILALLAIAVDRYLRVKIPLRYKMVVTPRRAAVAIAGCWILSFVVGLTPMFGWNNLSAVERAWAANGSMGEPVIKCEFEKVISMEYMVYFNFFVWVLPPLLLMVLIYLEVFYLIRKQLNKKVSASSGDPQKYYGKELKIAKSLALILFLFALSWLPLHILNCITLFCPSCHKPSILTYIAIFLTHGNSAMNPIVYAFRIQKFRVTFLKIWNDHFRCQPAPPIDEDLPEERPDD
# Description: as §1
# (§2) For binding to the human A1AR, [^3H]R-PIA (2 nM) was incubated with membranes (40 μg/tube) from CHO cells stably expressing the human A1AR at 25° C. for 60 min in 50 mM Tris.HCl buffer (pH 7.4; MgCl2, 10 mM) in a total assay volume of 200 μL. Nonspecific binding was determined using 10 μM of N^6-cyclopentyladenosine. For human A2A AR binding, membranes (20 μg/tube) from HEK-293 cells stably expressing the human A2A AR were incubated with 15 nM [^3H]CGS21680 at 25° C. for 60 min in 200 μL of 50 mM Tris.HCl, pH 7.4, containing 10 mM MgCl2. N-5′-ethyluronamidoadenosine (10 μM) was used to define nonspecific binding. Reaction was terminated by filtration with GF/B filters.
# [4] = target: T1, human A3ARs (Homo sapiens (Human), UniProt P0DMS8); assay: Dissociation kinetics of [125I]I-AB-MECA from human A3ARs; format: binding; conditions: 0.5 h, % decrease of dissociation at 30 min, residual binding of [125I]AB-MECA after 30 min = 100%, Table 2, read-out: hA3AR Ag. Dissociation at 10 μM
# T1 sequence (P0DMS8 whole entry): as the sequence (P0DMS8 whole entry) above
# Description: The dissociation of [^125I]I-AB-MECA was measured as follows. Membranes (20 μg) were preincubated at 25° C. with 0.5 nM [^125I]I-AB-MECA, in a total volume of 100 μl of Tris-HCl buffer (50 mM, pH 8.0) containing 10 mM MgCl2, and 1 mM EDTA for 60 min. The dissociation was then initiated by the addition of 3 μM Cl-IB-MECA with or without allosteric modulators. The time course of dissociation of total binding was measured by rapid filtration at appropriate time intervals. Nonspecific binding was measured after 60-min incubation in the presence of 3 μM Cl-IB-MECA. Further assay was as described above.
# [5] = target: T1, human A3ARs; assay: Cyclic AMP accumulation assay, efficacy at hA3AR; format: cell-based; conditions: compared to maximal effect by 2-Cl-IB-MECA alone (control = 100%)
# Description: Intracellular cyclic AMP levels were measured with a competitive protein binding method (Nordstedt and Fredholm, 1990). CHO cells that expressed recombinant human A3ARs were harvested by trypsinization. After centrifugation and resuspension in medium, cells were plated in 24-well plates in 0.5 ml medium. After 24 hr, the medium was removed and cells were washed three times with 1 ml DMEM, containing 50 mM HEPES, pH 7.4. Cells were then treated with agonists and/or test compounds in the presence of rolipram (10 μM) and adenosine deaminase (3 units/ml). After 45 min forskolin (10 μM) was added to the medium, and incubation was continued an additional 15 min. The reaction was terminated by removing the supernatant, and cells were lysed upon the addition of 200 μL of 0.1 M ice-cold HCl. The cell lysate was resuspended and stored at −20° C. For determination of cyclic AMP production, protein kinase A (PKA) was incubated with [^3H]cyclic AMP (2 nM) in K2HPO4/EDTA buffer (K2HPO4, 150 mM; EDTA, 10 mM), 20 μL of the cell lysate, and 30 μL 0.1 M HCl or 50 μL of cyclic AMP solution (0-16 pmol/200 μL for standard curve). Bound radioactivity was separated by rapid filtration through Whatman GF/C filters and washed once with cold buffer. Bound radioactivity was measured by liquid scintillation spectrometry.
# [6] = target: human A2A AR (Homo sapiens (Human), UniProt P29274); assay: Binding assay to the human A2A AR ([3H]CGS21680); conditions: [3H]CGS 21680 (15 nM), HEK293 cells, Table 2; for Ki: read-out: Ki(hA2AAR)
# Sequence of human A2A AR (P29274 whole entry): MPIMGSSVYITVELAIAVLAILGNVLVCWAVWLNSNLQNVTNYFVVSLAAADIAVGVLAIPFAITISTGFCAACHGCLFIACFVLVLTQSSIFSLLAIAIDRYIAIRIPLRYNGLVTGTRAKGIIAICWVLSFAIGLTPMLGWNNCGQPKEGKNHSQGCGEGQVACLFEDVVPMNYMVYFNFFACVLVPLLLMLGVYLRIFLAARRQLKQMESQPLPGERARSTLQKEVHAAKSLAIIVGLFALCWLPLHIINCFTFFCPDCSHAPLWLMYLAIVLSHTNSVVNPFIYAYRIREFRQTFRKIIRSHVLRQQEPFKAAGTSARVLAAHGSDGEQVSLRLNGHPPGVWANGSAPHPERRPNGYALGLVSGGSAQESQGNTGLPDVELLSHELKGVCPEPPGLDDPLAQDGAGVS
# Description: as §1, §2
# Sequence of hA2BAR (P29275 whole entry): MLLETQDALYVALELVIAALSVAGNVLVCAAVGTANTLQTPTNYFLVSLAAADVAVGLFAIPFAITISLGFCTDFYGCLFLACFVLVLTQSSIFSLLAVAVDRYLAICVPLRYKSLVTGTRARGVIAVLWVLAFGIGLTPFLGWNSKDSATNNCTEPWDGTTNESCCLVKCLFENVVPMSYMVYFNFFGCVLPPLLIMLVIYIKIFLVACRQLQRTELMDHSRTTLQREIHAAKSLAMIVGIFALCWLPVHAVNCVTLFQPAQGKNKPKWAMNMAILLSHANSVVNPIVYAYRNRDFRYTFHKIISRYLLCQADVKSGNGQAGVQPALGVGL
SMILES,inhibition at 10 µM [1] [%],inhibition at 10 µM [2] [%],inhibition at 10 µM [3] [%],activity at 10 µM [4] [%],% Increase of efficacy at hA3AR at 10 μM [5] [%],hA2AAR % displ. at 10 μM [6],melting point [°C],Ki [2] [µM],Ki [6] [µM],affinity to orthosteric versus allosteric binding sites (selective affinity) [2],Ki [3] [µM]
"Clc1ccc(Nc2nc3ccccc3c3[nH]c(C4CCC4)nc23)cc1Cl [Compound 44, N-(3,4-Dichloro-phenyl)-2-cyclobutyl-1H-imidazo[4,5-c]quinolin-4-amine]",-5.5,52,-5,–,126 ± 3,0.4%,131 to 134,–,–,–,–
"COc1ccc(CNc2nc3ccccc3c3[nH]c(C4CCCC4)nc23)cc1 [Compound 38, N-(4-Methoxy-benzyl)-2-cyclopentyl-1H-imidazo[4,5-c]quinolin-4-amine]",0.3,80,59,101 ± 13,109 ± 3,60%,245 to 247,–,–,–,–
"c1ccc2c(c1)nc(Nc1ccc3cn[nH]c3c1)c1nc(C3CCCC3)[nH]c12 [Compound 37, N-(1H-indazol-6-yl)-2-cyclopentyl-1H-imidazo[4,5-c]quinolin-4-amine]",5,67,56,109 ± 3,96 ± 2,68%,235 to 236,–,–,–,–
"Clc1ccc(Nc2nc3ccccc3c3[nH]c(C4CCCC4)nc23)cc1Cl [Compound 33, N-(3,4-Dichloro-phenyl)-2-cyclopentyl-1H-imidazo[4,5-c]quinolin-4-amine]",-6.7,67,15,144 ± 9,141 ± 5,(0%),114 to 115,4.69 ± 0.97,> 10,selective affinity,> 10
"CCCCCc1nc2c(Nc3ccc(Cl)c(Cl)c3)nc3ccccc3c2[nH]1 [Compound 47, N-(3,4-Dichloro-phenyl)-2-pentyl-1H-imidazo[4,5-c]quinolin-4-amine]",-9.3,84,43.9,116 ± 5,102 ± 5,−1%,195 to 200,–,–,–,–
"c1ccc2c(c1)nc(Nc1ccc3cc[nH]c3c1)c1nc(C3CCCC3)[nH]c12 [Compound 39, N-(1H-Indol-6-yl)-2-cyclopentyl-1H-imidazo[4,5-c]quinolin-4-amine]",10.1,89,70,126 ± 9,125 ± 2,74%,260 to 261,–,–,–,–
"Clc1ccc(Nc2nc3ccccc3c3[nH]cnc23)cc1Cl [Compound 46, N-(3,4-Dichloro-phenyl)-2-1H-imidazo[4,5-c]quinolin-4-amine]",10.2,39,1.8,91 ± 7,92 ± 4,−0.8%,167 to 172,–,–,–,–
"Cc1ccc(Nc2nc3ccccc3c3[nH]c(C4CCCC4)nc23)cc1 [Compound 31, N-(4-Methyl-phenyl)-2-cyclopentyl-1H-imidazo[4,5-c]quinolin-4-amine]",-4.1,87,–,153 ± 4,128 ± 4,–,125 to 126,1.19 ± 0.107,5.22 ± 0.32,–,–
"Clc1ccc(Nc2nc3ccccc3c3[nH]c(C4CCCCCC4)nc23)cc1Cl [Compound 42, N-(3,4-Dichloro-phenyl)-2-cycloheptyl-1H-imidazo[4,5-c]quinolin-4-amine]",-7.3,68,-4,130 ± 2,115 ± 7,−2%,236 to 238,–,–,selective affinity,–

# Second part, led by results:
inhibition at 10 µM [1] [%],inhibition at 10 µM [2] [%],inhibition at 10 µM [3] [%],activity at 10 µM [4] [%],% Increase of efficacy at hA3AR at 10 μM [5] [%],hA2AAR % displ. at 10 μM [6],melting point [°C],Ki [2] [µM],Ki [6] [µM],SMILES,affinity to orthosteric versus allosteric binding sites (selective affinity) [2],Ki [3] [µM]
-11.6,84,52,154 ± 7,137 ± 4,91%,95 to 97,–,–,"c1ccc(CCNc2nc3ccccc3c3[nH]c(C4CCCC4)nc23)cc1 [Compound 41, N-(Phenylethyl)-2-cyclopentyl-1H-imidazo[4,5-c]quinolin-4-amine]",–,–
-6.8,90,–,174 ± 5,138 ± 8,–,–,0.786 ± 0.067,3.15 ± 0.21,"c1ccc(Nc2nc3ccccc3c3[nH]c(C4CCCC4)nc23)cc1 [Compound 30, N-Phenyl-2-cyclopentyl-1H-imidazo[4,5-c]quinolin-4-amine, reference compound]",non-specific affinity,3.42 ± 0.23
-4.1,56,51,129 ± 15,118 ± 4,49%,228 to 230,–,–,"OCc1cccc(Nc2nc3ccccc3c3[nH]c(C4CCCC4)nc23)c1 [Compound 35, N-(3-Methanol-phenyl)-2-cyclopentyl-1H-imidazo[4,5-c]quinolin-4-amine]",–,–
-3.4,86,28,145 ± 10,147 ± 8,77%,–,–,–,"c1ccc(CNc2nc3ccccc3c3[nH]c(C4CCCC4)nc23)cc1 [Compound 40, N-(Benzyl)-2-cyclopentyl-1H-imidazo[4,5-c]quinolin-4-amine]",–,–
